Assay results taken from US11547681B2, “N-acylethanolamide derivatives and uses thereof” (ELIEM THERAPEUTICS, INC., priority 2016, dated 2023).

Experiments:
[1] = Plasma stability (37° C., pH 7.4), mouse; assay type: in vitro ADME, CD-1 mouse; conditions: for half-life at 1 μM: male, CD-1, mouse, plasma, pH 7.4, mouse plasma; for % Remaining of Initial (n = 1), 0 min / % Remaining of Initial (n = 1), 15 min / % Remaining of Initial (n = 1), 30 min / % Remaining of Initial (n = 1), 60 min / % Remaining of Initial (n = 1), 120 min: mouse plasma; for % Remaining of Initial (n = 1), 0 min: pH 7.4, 0 min; for % Remaining of Initial (n = 1), 15 min: pH 7.4, 15 min; for % Remaining of Initial (n = 1), 30 min: pH 7.4, 30 min; for % Remaining of Initial (n = 1), 60 min: pH 7.4, 60 min; for % Remaining of Initial (n = 1), 120 min: pH 7.4, 120 min
Experimental: (§1) Studies were carried out in mixed-gender human plasma (Lot #GLP530-5), male Sprague-Dawley rat (Lot #RAT297944, RAT313140), male CD-1 mouse (Lot #MSE237700), and male Beagle dog (Lot #BGL87670, BGL82614), collected on sodium heparin. Plasma was adjusted to pH 7.4 prior to initiating the experiments. DMSO stocks were first prepared for the test articles. Aliquots of the DMSO solutions were dosed into 700 μL of plasma, which had been pre-warmed to 37° C., at a final test article concentration of 1 μM. […] Samples were stored at 4° C. until the end of the experiment. After the final time point was sampled, the plate was mixed and then centrifuged at 3,000 rpm for 10 minutes. Calibration standards were prepared in matched matrix. […] Analytical conditions are outlined in Appendix 8-1.
as §1, with “#AS1650-2),” for “#GLP530-5),”, “#RAT297944),” for “#RAT297944, RAT313140),”, “CD-I” for “CD-1”, “#BGL91384),” for “#BGL87670, BGL82614),”, “10-1.” for “8-1.”
Studies were carried out in mixed-gender human plasma (Lot #AS1650-2), male Sprague-Dawley rat (Lot #RAT297944), male CD-1 mouse (Lot #MSE237700), and male Beagle dog (Lot #BGL91384), collected on sodium heparin. Plasma was adjusted to pH 7.4 prior to initiating the experiments. DMSO stocks were first prepared for test articles. […] Samples were stored at 4° C. until the end of experiment. After the final time point was sampled, the plate was mixed and then centrifuged at 3,000 rpm for 10 minutes. Calibration standards were prepared in matched matrix. […] Analytical conditions are outlined in Appendix 13-1.
Studies were carried out in mixed-gender human plasma (Lot #AS 1650-2), male Sprague-Dawley rat (Lot #RAT320835), male CD-1 mouse (Lot #MSE260693), and 6 male Beagle dog (Lot #BGL91384), on sodium heparin. Plasma was adjusted to pH 7.4 prior to initiating the experiments. DMSO stocks were first prepared for the test articles. Aliquots of the DMSO solutions were dosed into 700 μL of plasma, which had been pre-warmed to 37° C., at a final test article concentration of 1 μM. […] Samples were stored at 4° C. until the end of the experiment. After the final time point was sampled, the plate was mixed and then centrifuged at 3,000 rpm for 10 minutes. Calibration standards were prepared in matched matrix. […] Analytical conditions are outlined in Appendix 17-1.

in vitro = conditions: for Concentration (μM) of analyte PEA, 0 min / Concentration (μM) of analyte PEA, 10 min / Concentration (μM) of analyte PEA, 20 min / Concentration (μM) of analyte PEA, 30 min / Concentration (μM) of analyte PEA, 60 min / % Remaining of Initial (n = 1), 0 min / % Remaining of Initial (n = 1), 10 min / % Remaining of Initial (n = 1), 20 min / % Remaining of Initial (n = 1), 30 min / % Remaining of Initial (n = 1), 60 min / microsomal CLint at 1 μM / half-life at 1 μM / microsomal CLint / half-life: male, CD-1, mouse; for Concentration (μM) of analyte PEA, 0 min / Concentration (μM) of analyte PEA, 10 min / Concentration (μM) of analyte PEA, 20 min / Concentration (μM) of analyte PEA, 30 min / Concentration (μM) of analyte PEA, 60 min / % Remaining of Initial (n = 1), 0 min / % Remaining of Initial (n = 1), 10 min / % Remaining of Initial (n = 1), 20 min / % Remaining of Initial (n = 1), 30 min / % Remaining of Initial (n = 1), 60 min: 1 μM; for % Remaining of Initial (n = 1), 0 min: s9, 0 h; for % Remaining of Initial (n = 1), 10 min: s9, 10 min; for % Remaining of Initial (n = 1), 20 min: s9, 20 min; for % Remaining of Initial (n = 1), 30 min: s9, 0.5 h; for % Remaining of Initial (n = 1), 60 min: s9, 1 h; for microsomal CLint at 1 μM: s9, CLint (mL/min/mg protein)
Experimental: (§2) Reaction mixture, minus cofactors, was prepared as described below. Test article was added into the reaction mixture at a final concentration of 1 μM. […] An aliquot of the reaction mixture (without cofactor cocktail) was equilibrated in a shaking water bath at 37° C. for 3 minutes. The reaction was initiated by the addition of cofactor cocktail, and the mixture was incubated in a shaking water bath at 37° C. Aliquots (100 μL) were withdrawn at 0, 10, 20, 30, and 60 minutes. Test article samples were immediately combined with 300 μL of ice-cold acetonitrile containing 1% formic acid. Control samples were immediately combined with 400 μL of ice-cold 50/50 acetonitrile (ACN)/dH2O containing 0.1% formic acid and internal standard to terminate the reaction. Samples were then mixed and centrifuged to precipitate proteins. Calibration standards were prepared in matched matrix. Samples and standards were assayed by LC-MS/MS using electrospray ionization for both the dosed prodrug and the expected drug (PEA). Analytical conditions are outlined in Appendix 8-1. Test article concentration at each time point was compared to test article concentration at time 0 to determine the percent remaining at each time point. Halflives were calculated using GraphPad software, fitting to a single-phase exponential decay equation.
as §2, with “for 5” for “for 3”, “minutes. Reaction” for “minutes. The reaction”, “and” for “and the”, “both” for “both the”, “Appendix 10-1.” for “Appendix 8-1.”
Reaction mixture, minus cofactors, was prepared as described below. Test article was added into the reaction mixture at a final concentration of 1 μM. […] An aliquot of the reaction mixture (without cofactor cocktail) was equilibrated in a shaking water bath at 37° C. for 3 minutes. Reaction was initiated by the addition of cofactor cocktail, and the mixture was incubated in a shaking water bath at 37° C. Aliquots (100 μL) were withdrawn at 0, 10, 20, 30, and 60 minutes. Test article samples were immediately combined with 300 μL of ice-cold acetonitrile containing 1% formic acid. Control samples were immediately combined with 400 μL of ice-cold 50/50 acetonitrile (ACN)/dH2O containing 0.1% formic acid and internal standard to terminate the reaction. Samples were then mixed and centrifuged to precipitate proteins. Calibration standards were prepared in matched matrix. Samples and standards were assayed by LC-MS/MS using electrospray ionization for both dosed prodrug and expected drug (PEA). Analytical conditions are outlined in Appendix 13-1. Test article concentration at each time point was compared to test article concentration at time 0 to determine the percent remaining at each time point. Halflives were calculated using GraphPad software, fitting to a single-phase exponential decay equation.

[2] = test article 1 μM, 37° C., pH 7.4, read-out: Half-life
[3] = control compound, mouse intestinal S9 fraction

| SMILES | half-life at 1 μM [1, 2] | % Remaining of Initial (n = 1), 0 min ([1]; test article 1 μM, 37° C.) | % Remaining of Initial (n = 1), 15 min ([1]; test article 1 μM, 37° C.) | % Remaining of Initial (n = 1), 30 min ([1]; test article 1 μM, 37° C.) | % Remaining of Initial (n = 1), 60 min ([1]; test article 1 μM, 37° C.) | % Remaining of Initial (n = 1), 120 min ([1]; test article 1 μM, 37° C.) | Concentration (μM) of analyte PEA, 0 min (in vitro) | Concentration (μM) of analyte PEA, 10 min (in vitro) | Concentration (μM) of analyte PEA, 20 min (in vitro) | Concentration (μM) of analyte PEA, 30 min (in vitro) | Concentration (μM) of analyte PEA, 60 min (in vitro) | % Remaining of Initial (n = 1), 0 min (in vitro) | % Remaining of Initial (n = 1), 10 min (in vitro) | % Remaining of Initial (n = 1), 20 min (in vitro) | % Remaining of Initial (n = 1), 30 min (in vitro) | % Remaining of Initial (n = 1), 60 min (in vitro) | microsomal CLint at 1 μM (in vitro) | half-life at 1 μM (in vitro; s9, Half-life (min)) | other results |
| --- | --- | --- | --- | --- | --- | --- | --- | --- | --- | --- | --- | --- | --- | --- | --- | --- | --- | --- | --- |
| CCCCCCCCCCCCCCCC(=O)NCCOC(=O)CCC [Compound I-2] | 62 min | 100% | 72% | 71% | 56% | 21% | 0.52 µM | 0.50 µM | 0.52 µM | 0.45 µM | 0.45 µM | 100% | <1.0% | <1.0% | <1.0% | <1.0% | > 691 µL/min/mg | < 0.0167 h |  |
| CCCCCCCCCCCCCCCC(=O)NCCOC(=O)CCC(=O)OCC(COC(=O)CCCCCCC)OC(=O)CCCCCCC (stereo not shown) [Compound I-3, PEA-Succinate-Glycerol-Di-Caprylic] | 9.4 min | 100% | 23% | 24% | 9.1% | 4.7% | 0 µM | 0.026 µM | 0.024 µM | 0.026 µM | 0.043 µM | 100% | 68% | 59% | 49% | 33% | 21.1 µL/min/mg | 0.55 h |  |
| CC/C=C\C/C=C\C/C=C\C/C=C\C/C=C\CCCC(=O)OCCNC(=O)CCCCCCCCCCCCCCC [Compound I-5] | > 120 min | 100% | 109% | 86% | 73% | 75% | 0.050 µM | 0.11 µM | 0.076 µM | 0.093 µM | 0.14 µM | 100% | 68% | 67% | 66% | 49% |  |  | half-life at 1 μM ([1]; calculated value beyond duration of experiment, read-out: Half-life (min), calculated half-life in parentheses): 213 min |
| CCCCC/C=C\C/C=C\CCCCCCCC(=O)OCCNC(=O)CCCCCCCCCCCCCCC [Compound I-6] | 56 min | 100% | 83% | 89% | 39% | 23% | 0.12 µM | 0.14 µM | 0.17 µM | 0.15 µM | 0.17 µM | 100% | 62% | 69% | 61% | 53% | < 11.6 µL/min/mg | > 1 h | microsomal CLint at 1 μM (in vitro; calculated value in parentheses): 10.5 µL/min/mg; half-life at 1 μM (in vitro; s9, Half-life (min), calculated half-life in parentheses): 1.1 h |
| C[C@]12CC[C@H]3[C@@H](CCC4=CC(=O)CC[C@@]43C)[C@@H]1CC[C@@H]2O [Testosterone, testosterone, reference compound] |  |  |  |  |  |  |  |  |  |  |  |  |  |  |  |  |  |  | CLin (in vitro; [3]): < 0.0116 ml/min/mg protein; CLin, calculated value in parentheses (in vitro; [3]): 0.00767 ml/min/mg protein; microsomal CLint (in vitro; s9, CLint (ml/min/mg protein), calculated value in parentheses, control compound, mouse intestinal S9 fraction, calculated value beyond duration of experiment): 9.19 µL/min/mg; microsomal CLint (in vitro; s9, CLint (ml/min/mg protein), control compound, mouse intestinal S9 fraction): < 11.6 µL/min/mg; microsomal CLint (in vitro; s9, CLint, Control Compound, Mouse intestinal S9 fraction): < 11.6 µL/min/mg; microsomal CLint (in vitro; s9, CLint, Mouse intestinal S9 fraction, control compound): < 11.6 µL/min/mg; half-life (in vitro; s9, Half-life (min), calculated value in parentheses, control compound, mouse intestinal S9 fraction, calculated value beyond duration of experiment): 1.25 h; half-life (in vitro; s9, Half-life (min), control compound, mouse intestinal S9 fraction): > 1 h; half-life (in vitro; s9, Half-life, Control Compound, Mouse intestinal S9 fraction): > 1 h; half-life at 1 μM (in vitro; s9, Half-life, Mouse intestinal S9 fraction): > 1 h; half-life (in vitro; s9, Half-life, calculated value in parentheses, control compound, mouse intestinal S9 fraction): 1.5 h; half-life (in vitro; s9, Half-life, control compound, mouse intestinal S9 fraction): > 1 h |
